Assay results from patent US7858329B2, “Antibody tools for the diagnostic use in the medical therapy with inhibitors of histone deacetylases” (TopoTarget Germany AG, priority 2002, dated 2010).

Key:
[1] = system: acetylated histone H4 in U937 cells; experiment: Immunohistochemistry (T25) of U937 cells treated with HDACi; format: cell-based, human; conditions: 12 hours, 1 mM, T25 antibody
Description: To evaluate the specificity of the T25 antibody in immunohistochemistry (IHC), the inventors performed a preliminary test in an established cell line (U937 cells). […] Untreated cells, or cells treated for 12 hours with VPA (1 mM), were either processed for Western blot analysis (FIG. 3A), or fixed in formalin and then processed for immunohistochemistry (FIG. 1B). […] The T25 antibody can therefore be used for the analysis of histone acetylation levels by western blot analysis and immunohistochemistry (IHC).

[2] = system: cells derived from "class A" (globally hypoacetylated) primary human breast tumors; experiment: Apoptosis of cultured primary breast tumor cells treated with HDAC inhibitors; format: cell-based; conditions: cells from four class A tumors
Description: (§1) To establish whether this classification may have additional correlations with tumor biology and potential influences on the choice of clinical therapeutic treatments, the sensitivity of tumor cells derived from “class A” or “class B” primary human breast tumors to various HDAC inhibitors was evaluated in vitro (FIG. 7-8). To investigate this further, cells derived from excision surgery of primary breast tumors were cultured (on which in parallel IHC using the T25 antibody was performed to establish the histone acetylation levels in vivo) following standard procedures (Elenbaas et al., 2001, Genes Dev 15, 50-65). After a few passages in culture (in the absence of fetal bovine serum, to eliminate contamination of fibroblasts), the cell population is greatly enriched in tumor cells. The bulk populations of cells derived from four “class A” and three “class B” tumors were then treated with VPA, or TSA (FIGS. 7-8). […] The immunohistochemical classification as described here, can therefore be used to predict the response of tumor cells to treatment with HDAC inhibitors and could thus be used for prognostic predictions whether a patient should be treated with such inhibitors.

[3] = system: cells derived from "class B" primary human breast tumors; experiment: as above; format: cell-based; conditions: cells from three class B tumors
Description: as §1

[4] = system: acetylated histone H3 and histone H4 in U937 cells; experiment: Western blot of histone acetylation in U937 cells treated with HDACi; format: cell-based, human; conditions: for levels of acetylated histone H3 and histone H4 by Western blot: treatment in vitro for 6-12 hours
[5] = system: histone acetylation in peripheral blood mononuclear cells; experiment: Flow cytometry of histone acetylation in blood mononuclear cells of patients under VPA treatment; format: in vivo, human; conditions: 10 to 30 mg/kg/day
Description: Histone acetylation analysis was performed according to the following procedure. Cells were fixed for 15 minutes in 1% formaldehyde in PBS. 1×10^6 cells/sample were washed with PBS+1% BSA and permeabilised with 200 μl of 0.1% Triton X100 in PBS for 10 min at room temperature (to allow for the antibody to reach acetylated nuclear proteins, such as histones). After washing with PBS+1% BSA pellets were incubated with 500 μl of 10% normal goat serum (NGS) in PBS for 20 min at 4° C. Histone acetylation levels were detected by incubation with T52 mouse monoclonal antibody (1 μg/ml in PBS+1% BSA). Detection was performed by incubation with a fluorescein isothiocyanate (FITC)-conjugated affinity pure F(ab′)2 fragment of goat anti-mouse IgG (Sigma) for 1 h at room temperature in the dark.

[6] = Plasmatic VPA concentration in treated patients; format: in vivo, human; conditions: 10 to 30 mg/kg/day
Description: HDAC inhibitors are currently being tested for their clinical use in tumor patients (Marks et al., 2001, Nat Rev Cancer 1, 194-202). Therefore, the inventors evaluated the response to valproic acid, VPA (a HDAC inhibitor currently in clinical trials for several forms of cancer), in blood samples of patients subjected to VPA treatment. Peripheral blood was collected periodically before/at various times of VPA treatment (10 to 30 mg/kg/day; plasmatic VPA concentration: 0,75 mM), mononuclear cells were isolated by Ficoll analysis and then analyzed as described. […] The histone acetylation level measured in blood cells may serve as marker to evaluate the efficacy of HDAC inhibitor treatment of patients suffering from tumors, including solid tumors, to further orientate the treatment schedule.

T-cell lymphomas = conditions: phase II; cited from earlier work
[7] = system: stage III/IV non-small cell lung cancer; conditions: phase II, monotherapy; cited from earlier work
[8] = system: tumor cells transduced with HDAC/MTA constructs (HDAC-1, HDAC-2, MTA1); experiment: Sensitivity to HDAC inhibitor of transduced primary tumor-derived cell culture; format: cell-based; conditions: histone hypoacetylation
Description: An aliquot of the cells was collected, and Western blot analysis (using antibodies directed against acetylated histone H4) was performed on protein extracts prepared from these cells, to verify that overexpression of either HDAC, or of MTA1, led to a decrease in histone acetylation levels of the tumor cells.

[9] = system: histone acetylation in U-937 cells; experiment: Flow cytometry of histone acetylation (T52 staining) in U937 cells; format: cell-based, human; conditions: 10 ng/ml for 4 hrs, untreated cells 90
Description: Human U-937 cells were grown in RPMI-1640 medium supplemented with 10% Fetal Bovine Serum in standard culture conditions.
Exponentially growing U-937 cells were treated for 4 hrs with 10 ng/ml Trichostatin A (TSA, Sigma Aldrich). After the treatment cells were washed with cold phosphate buffer saline (PBS), counted and fixed in 1% formaldehyde in PBS for 15 minutes. Fixed cells were then washed, resuspended in PBS, and stocked at 4° C.
Histone acetylation analysis was performed according to the following procedure. Cells were fixed for 15 minutes in 1% formaldehyde in PBS. 1×10^6 cells/sample were washed with PBS+1% BSA and permeabilised with 200 μl of 0.1% Triton X100 in PBS for 10 min at room temperature (to allow for the antibody to reach acetylated nuclear proteins, such as histones). After washing with PBS+1% BSA pellets were incubated with 500 μl of 10% normal goat serum (NGS) in PBS for 20 min at 4° C. Histone acetylation levels were detected by incubation with T52 mouse monoclonal antibody (1 μg/ml in PBS+1% BSA). […]
Flow cytometry analysis was performed using a FACScan flow cytometer (Becton Dickinson), acquiring at least 10,000 events/sample. The instrument was equipped with a bandpass 530/30 nm optical filter for FITC fluorescence detection (FL1 channel) and a 650 nm longpass optical filter in front of the PI (FL3) channel detector. […]

[10] = system: control-transduced (MCSV) primary tumor-derived cells; experiment: Sensitivity to HDAC inhibitor of transduced primary tumor-derived cell culture; format: cell-based; conditions: high histone H4 acetylation

## CCCC(CCC)C(=O)O [VPA, valproic acid]
[1]
  acetylated histone H4 staining in immunohistochemistry: increase in the intensity of staining and number of stained cell nuclei
[2]
  apoptosis upon treatment with the HDAC inhibitors: showed apoptosis
[3]
  apoptosis upon treatment with the HDAC inhibitors: totally resistant
[4]
  levels of acetylated histone H3 and histone H4 by Western blot: drastic increase
[5]; after 7-days of treatment (day 8)
  Histone acetylation levels, increase: > 3 fold
[5]; day 28-35
  Histone acetylation levels: further increased
[6]
  plasmatic VPA concentration: 0,75 mM

## C/C=C1\NC(=O)[C@H]2CSSCC/C=C/[C@H](CC(=O)N[C@H](C(C)C)C(=O)N2)OC(=O)[C@H](C(C)C)NC1=O [depsipeptide]
T-cell lymphomas
  clinical outcome: used successfully

## CCCC(=O)OCOC(=O)C(C)(C)C [Pivanex]
[7]
  clinical activity: demonstrating activity

## CC(/C=C/C(=O)NO)=C\[C@@H](C)C(=O)c1ccc(N(C)C)cc1 [TSA, Trichostatin A]
[2]
  apoptosis upon treatment with the HDAC inhibitors: showed apoptosis
[3]
  apoptosis upon treatment with the HDAC inhibitors: totally resistant
[8]
  apoptosis: up to 50%
[4]; detection with T52 antibody (FIG. 9)
  acetylated histones H3 and H4 bands in Western blot: greatly increased
[4]
  levels of acetylated histone H3 and histone H4 by Western blot: drastic increase
[9]
  mean fluorescence value (FL1-H), T52 staining: 450
[10]
  sensitivity to treatment (apoptosis): resistant
